Paper PMC3332521 (Scientific Reports, 2012)
Blank lines part the entries; values can stand above or below the molecule they belong to.

Legend:
Nfo = biological target: T1, Nfo (Pseudomonas putida, UniProt F8G0M2); assay: coupled formate dehydrogenase assay, NADH at […] nm; format: biochemical; conditions: 50 mM Tris-HCl pH 8.0, 20°C, NAD
T1 sequence (F8G0M2 1-255): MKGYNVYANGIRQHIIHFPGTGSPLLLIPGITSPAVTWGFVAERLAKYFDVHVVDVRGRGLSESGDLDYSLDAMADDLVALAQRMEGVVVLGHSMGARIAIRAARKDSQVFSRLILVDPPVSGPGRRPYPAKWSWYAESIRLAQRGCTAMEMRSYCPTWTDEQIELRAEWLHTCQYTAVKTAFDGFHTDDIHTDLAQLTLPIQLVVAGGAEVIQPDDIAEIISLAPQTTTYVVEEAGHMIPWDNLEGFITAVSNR

Ami = biological target: T2, Ami (Pseudomonas putida, UniProt F8G0M0); assay: coupled glutamate dehydrogenase assay, NADPH at […] nm; format: biochemical; conditions: 50 mM Tris-HCl, 1 mM EDTA, 20°C, alpha-ketoglutarate
T2 sequence (F8G0M0 1-208): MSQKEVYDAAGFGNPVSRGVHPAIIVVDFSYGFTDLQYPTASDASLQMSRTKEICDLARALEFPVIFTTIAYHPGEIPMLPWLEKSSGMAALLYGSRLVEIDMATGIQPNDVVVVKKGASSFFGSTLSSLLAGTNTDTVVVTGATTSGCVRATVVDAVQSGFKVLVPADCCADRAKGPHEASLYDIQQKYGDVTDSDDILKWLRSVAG

Iso = biological target: T3, Iso (Pseudomonas putida, UniProt F8G0M3); assay: spectrophotometric, maleate consumption at […] nm; format: biochemical; conditions: read-out: apparent Km; 50 mM Tris-HCl pH 8.4, 30°C, 1-thioglycerol
T3 sequence (F8G0M3 1-252): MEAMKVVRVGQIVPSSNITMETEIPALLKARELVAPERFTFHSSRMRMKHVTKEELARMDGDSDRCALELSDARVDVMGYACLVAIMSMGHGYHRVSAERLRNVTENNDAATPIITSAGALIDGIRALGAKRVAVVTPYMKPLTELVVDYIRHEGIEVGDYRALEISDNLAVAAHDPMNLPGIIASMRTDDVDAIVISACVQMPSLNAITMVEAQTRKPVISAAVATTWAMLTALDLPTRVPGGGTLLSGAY

purified protein = substrate: Oc1ccc(O)nc1; assay: purified protein; format: biochemical, Pseudomonas putida; conditions: 0.025 mM Fe2+, 18.2 mM Tris-HCl pH 8.0, 20°C

Molecule: O=CNC(=O)/C=C\C(=O)O [NFM]
- coupled formate dehydrogenase assay, NADH at 340 nm (Nfo): Nfo activity was measured through its production of formate by a coupled reaction

Molecule: NC(=O)/C=C\C(=O)O [maleamic acid]
- coupled glutamate dehydrogenase assay, NADPH at 340 nm (Ami): Purified Ami (Fig. 3A) transformed maleamic acid to maleic acid

- Km (Iso): 689 µM
Molecule: O=C(O)/C=C\C(=O)O [maleate]

B1: Hpo (Pseudomonas putida S16) (protein)
chain: MDHVSFTEICLRQLKMSGVHEGERLIVLTQGHERLAYADAFMAAGQRLGAEMYHMRLPSPLPSNGWAVGVTGLADLPGAVEALKNCDMLIDCVFLLFSAEQFEIQAAGTRILTAVEPPELLARMLPFPELREKVSIAAELVENAKDMRITSPHGTDITYKLNTYPTIAEYACTDTPGRWDHWPSGFVFTGGDDDGVDGTIVVAPGDVLLPQNLMVREPITYTIEKGWIVDIRGGLEAQIVNSYMDSFNDPRGKGMSHVGWGMNPHAKWHNFVPGQFTGGMGMELRSFYGNVMFSTGPNNELGGSNDTACHLDIPMRNCSLFLDDTPVVIDGDIVVKEIQLVQR
- Km (purified protein): 0.168 µM
